Reference: patent US20240016772A1, “Compositions And Methods Comprising D-Cysteine Or A D-Derivative Thereof” (UNIVERSITE DE GENEVE, priority 2020, published 2024)
“Also recorded” adds a separate entry of the source. Peptide text beside a SMILES is read from it. * marks the point of attachment. Cbz = O=C(OCc1ccccc1)*; CH2F = FC*

Tests used:
[1] = test system: cell lines derived from malignant pleural mesothelioma (MPM); assay: Colony formation, MPM cell lines; type: cell-based; details: colony formation assays or spheroids
Experimental: (§1) FIGS. 4A-4D: D-cysteine affects tumor cell viability. Colony formation assays in presence or absence 0.1 mM D-cysteine (D-Cys) for 2 weeks. FIG. 4A: Lung tumor cell lines+cervix cell line (HeLa). FIG. 4B: MPM cell lines. FIG. 4C: A549. FIG. 4D: LuCa62 spheroid formation in presence or absence of 0.1 mM, 0.2 mM or 0.5 mM D-cysteine for 17 days.
(§2) We therefore decided to test whether the D-cysteine-mediated inhibition of OCR could affect cell growth in a regular normal medium complemented with fetal calf serum. Most culture media used for cell culture contain 300 μM L-cystine. […] Importantly, some cancer cell lines, including HeLa cells (FIG. 4A), the MPM cell line H2052/484 (FIG. 4B), and osteosarcoma cell line 143B (not shown), were insensitive both in 2D cultures or in colony formation assays. The decrease in numbers of cells seen after 72 h exposure to D-cysteine was due to decreased cell proliferation. […] Importantly, in contrast to the results with cancer cells, normal human bronchial epithelial BEAS-2B cells were resistant to D-cysteine exposure even at very high concentration (FIG. 5B).

A549 cells [2] = assay: Proliferation of A549 cells (cell counts after 72 h / 3 days); type: cell-based, human; details: 500 μM added to culture medium, cells counted after 3 days (72 h)
Experimental: FIG. 1. Effect of L- and D-Cysteine, each tested at 500 microM, on the proliferation of A549 cells. Cells were counted 3 days after addition of L- or D-Cysteine. (CM=culture medium)
(§3) A549 lung tumor cells (FIG. 5A) or BEAS-2B normal bronchial epithelial cells (FIG. 5B) were cultured in complete media (CM) in the absence or presence of 500 μM D-cysteine (D-Cys). Cell numbers were analyzed after 72 h and after splitting of cells (p1). Cell numbers are expressed as % of cells cultured in the absence of D-cysteine. **** P<0.0001.
as §2

[3] = rat; 500 mg/kg daily by gavage for one month; cited from earlier work
A549 cells [4] = assay: Oxidized (GSSG) and total (GSH) glutathione levels in A549 cells; type: cell-based, human; details: 500 μM, 72 h
Experimental: (§4) A549 cells were cultured for 72 h in complete medium (CM) with or without 500 μM D-cysteine (D-Cys) and different cellular characteristics were analyzed. FIG. 8A: Oxidized (GSSG) and total (GSH) glutathione levels. FIG. 8B: Mitochondrial ROS production by MitoSOX staining. FIG. 8C: Lipid peroxidation by Bodipy C11 staining. MFI=Mean of Fluorescence Intensity (Flow cytometry). * P<0.05.
(§5) We first tested whether D-cysteine could trigger ferroptosis. Ferroptosis is a type of death due to iron-mediated ROS production and lipid peroxidation. In most cases, it is triggered by decreased glutathione levels.

HeLa cells = assay: 2D culture / colony formation, HeLa; type: cell-based; details: 2D cultures or colony formation assays
Experimental: as §1, §2

A375 melanoma cells = assay: Colony formation / proliferation, A375; type: cell-based; details: colony formation assays or spheroids
Experimental: as §2

[5] = test system: MDA-MB-231 triple-negative breast cancer cells; assay: Colony formation / proliferation, MDA-MB-231; type: cell-based; details: colony formation assays or spheroids
Experimental: as §2

MPM cell line H2052/484 = assay: 2D culture / colony formation, H2052/484; type: cell-based; details: 2D cultures or colony formation assays
Experimental: as §1, §2

[6] = D-cysteine quantification in blood (serum) of mice after gavage; type: in vivo; details: 500 mg/kg by gavage, no DAAO inhibitor, data not shown
Experimental: As described below, we have initiated experiments in which we administer D-cysteine (500 mg/kg) by gavage, and using the technique described in^37, we have measured the levels of D-cysteine in serum. […] We reasoned that the enzyme D amino oxidase (DAAO), which is known to oxidize D-amino acids and which in mice is highly expressed in the kidney, could explain the rapid clearance of D-cysteine from the blood. We therefore co-administered D-cysteine with an inhibitor of DAAO (JHU 1377). Using this protocol, we achieved higher levels of D-cysteine in the blood (Table 2) and indeed levels higher than that needed to repress tumor cell growth in vitro. Thus far we have only assessed the pharmacokinetics of D-cysteine during the first 6 h following administration. In future experiments we plan to repeat the analysis over longer time periods.
DAAO inhibitor JHU 1377 (30 mg/kg) was injected into mice, followed 2 h later by D-cysteine gavage (500 mg/kg). Blood was collected after 2, 4, and 6 h and levels of L- and D-cysteine were quantified in the serum.

A549 cells [7] = assay: Proteome analysis (LC-MS/MS with TMT) of A549 cells exposed to D-cysteine; type: cell-based, human; details: 500 μM, 72 h, FDR<0.01
Experimental: To understand how D-cysteine modifies protein expression, A549 cells were grown in the presence of D-cysteine for 3 days and total cellular proteins were compared to control cells grown in parallel in the presence of L-cysteine. For these experiments liquid chromatography-tandem mass spectrometry (LC-MS/MS) coupled with tandem mass tagging (TMT) was employed, a procedure which enables simultaneous protein identification and relative quantification of two different samples in the same proteomics experiment.
Proteome analysis of A549 cells cultured in the absence or presence of 500 μM D-cysteine for 72 h. […] FC=Fold change.

A549 lung cancer cells = assay: Proliferation of A549 cells with D-cysteine and 3-MST inhibitor HMPSNE; type: cell-based, human; details: D-cysteine 100 μM and/or HMPSNE
Experimental: (§6) A549 lung tumor cells (FIG. 10A) or MDA-MB-231 breast tumor cells (FIG. 10B) were cultured in complete media (CM) in the absence or presence of 100 μM D-cysteine (D-Cys), with (grey bars) or without (black bars) HMPSNE, a cell-membrane permeable inhibitor of 3-MST. Cell numbers were counted after 72 hours. * P<0.05, ** P<0.01, *** P<0.001, **** P<0.0001.
(§7) Furthermore, as mentioned above, it exerts toxic effects via iron chelation. Therefore, to survive D cysteine, cells need to increase its catabolism. There are two main pathways for cysteine catabolism: one is via its enzymatic breakdown to produce hydrogen sulfur and organic intermediates that will serve as carbon sources, and the second is via oxidative metabolism through cysteine dioxygenase 48. Inhibition of cysteine catabolism can be obtained with inhibitors of the key enzymes participating in this pathway. We have used a commercially available inhibitor of 3-MST, HMPSNE 49 to inhibit the enzyme in A549 lung cancer cells and in MDA-MB-231 breast cancer cells in the presence or absence of D cysteine.

[8] = test system: H1299 lung adenocarcinoma cells; assay: Colony formation / proliferation, H1299; type: cell-based; details: colony formation assays or spheroids
Experimental: as §1, §2

[9] = test system: BZR tumorigenic bronchial epithelial cells; assay: Colony formation / proliferation, BZR; type: cell-based; details: colony formation assays or spheroids
Experimental: as §1, §2

[10] = test system: BEAS-2B normal bronchial epithelial cells; assay: Proliferation of BEAS-2B normal cells; type: cell-based, human; details: 500 μM; 72 h and after splitting (p1); even at very high concentration
Experimental: as §3, §2

[11] = test system: MDA-MB-231 breast cancer cells; assay: Proliferation of MDA-MB-231 cells with D-cysteine and 3-MST inhibitor HMPSNE; type: cell-based; details: D-cysteine 100 μM and/or HMPSNE
Experimental: as §6, §7

[12] = test system: LuCa62 lung adenocarcinoma cells; assay: Colony formation / spheroid formation assay, LuCa62; type: cell-based, human; details: colony formation (0.1 mM, 2 weeks) or spheroids (0.1, 0.2 or 0.5 mM, 17 days)
Experimental: as §1, §2

A549 cells [13] = assay: Lipid peroxidation by Bodipy C11 staining; type: cell-based, human; details: 500 μM, 72 h
Experimental: as §4, §5

A549 cells [14] = assay: Mitochondrial respiration (OCR) of A549 cells; type: cell-based, human; details: 500 μM, 72 h
Experimental: FIG. 9: D-cysteine impairs mitochondrial respiration of lung tumor cells. A549 cells were cultured for 72 h in complete media (CM) supplemented or not with 500 μM D-cysteine (D-Cys), and oxygen consumption rate (OCR) was quantified both before (basal respiration) and after sequential addition of oligomycin and FCCP (maximal respiration).

A549 cells [15] = assay: Mitochondrial ROS production by MitoSOX staining; type: cell-based, human; details: 500 μM, 72 h
Experimental: as §4, §5

A549 cells [16] = assay: Cell death of A549 cells exposed to D-cysteine (passage p1, caspase 3 Western blotting, zVAD-fmk, CRISPR screen selection); type: cell-based, human
Experimental: as §3, §2
For these experiments a pooled lentiviral CRISPR library (Addgene) targeting 19114 human genes was used to infect A549 cells, stably expressing the Cas9 nuclease. Cells were then cultured in the presence of 0.5 mM D-cysteine, a concentration sufficient to induce A549 cell death. After 2-3 weeks, the surviving clones were recovered and the sgRNAs were amplified by PCR and sequenced using next-generation sequencing (NGS) to identify the targeted genes (FIG. 6).

A549 cells [17] = assay: Iron concentration in A549 cells by ICP-MS; type: cell-based, human; details: 72 h
Experimental: FIG. 3. Iron concentration in A549 cells cultured in the presence or absence of D-Cysteine for 72 h. Iron was measured using ICP-MS (Inductively coupled plasma mass spectrometry).
Moreover, D-cysteine could also trigger ferritinophagy, which is a process triggered in cells lacking iron. The most likely explanation is that D-cysteine, which accumulates in cells since it is not consumed during protein synthesis or other pathways, can react with iron through its thiol group, thus acting as an iron chelator. […] As a consequence, intracellular iron is depleted, and cells trigger ferritinophagy releasing ferric iron, thus leading to ROS production, lipid peroxidation and cell death.

[18] = test system: osteosarcoma cell line 143B; assay: 2D culture / colony formation, 143B; type: cell-based; details: 2D cultures or colony formation assays; not shown
Experimental: as §2

[19] = test system: mitochondrial respiration; assay: Oxygen consumption rate of cells in poor medium with single amino acids; type: cell-based; details: cells in poor medium containing only glucose, each amino acid tested separately; data not shown

N[C@H](CS)C(=O)O [D-cysteine]
antiproliferative effect, MPM-derived cell lines [1]: antiproliferative effect
proliferation of A549 cells (A549 cells [2]): inhibited the proliferation; also recorded: impairs proliferation of tumor cells
adverse effect on the animals [3]: no adverse effect
glutathione levels (A549 cells [4]): did not induce a drop in glutathione
sensitivity of HeLa cells (HeLa cells): insensitive
antiproliferative effect, A375 (A375 melanoma cells): antiproliferative effect
antiproliferative effect, MDA-MB-231 [5]: antiproliferative effect
sensitivity of MPM cell line H2052/484 (MPM cell line H2052/484): insensitive
initial level of D-cysteine in the blood [6]: around 200 μM
concentration at 2 h ([6]; mouse, serum, oral, read-out: level of D-cysteine in the blood within the first 2 h): 5 µM
FC (log2) CIAO1 protein (A549 cells [7]): −1.179 log2
FC (log2) COX4I1 protein (A549 cells [7]): −0.6951 log2
FC (log2) MT-CO3 protein (A549 cells [7]): −1.538 log2
FC (log2) MT-ND4 protein (A549 cells [7]): −1.86 log2
FC (log2) NDUFA4 protein (A549 cells [7]): −0.5939 log2
FC (log2) NDUFA5 protein (A549 cells [7]): −0.8033 log2
FC (log2) NDUFA7 protein (A549 cells [7]): −1.584 log2
FC (log2) NDUFA9 protein (A549 cells [7]): −0.5906 log2
FC (log2) NDUFA10 protein (A549 cells [7]): −0.8723 log2
FC (log2) NDUFA12 protein (A549 cells [7]): −0.6836 log2
FC (log2) NDUFS1 protein (A549 cells [7]): −1.133 log2
FC (log2) NDUFS4 protein (A549 cells [7]): −0.9309 log2
FC (log2) NDUFS7 protein (A549 cells [7]): −0.8355 log2
FC (log2) NDUFS8 protein (A549 cells [7]): −0.8273 log2
FC (log2) NDUFV1 protein (A549 cells [7]): −1.064 log2
FC (log2) NDUFV2 protein (A549 cells [7]): −0.7451 log2
FC (log2) SDHB protein (A549 cells [7]): −1.214 log2
cell proliferation (cell numbers after 72 hours), A549 (A549 lung cancer cells): did not significantly alter the growth
antiproliferative effect, H1299 [8]: antiproliferative effect
antiproliferative effect, BZR [9]: antiproliferative effect
proliferation of normal BEAS-2B cells [10]: resistant
cell proliferation (cell numbers after 72 hours), MDA-MB-231 [11]: did not significantly alter the growth
antiproliferative effect, LuCa62 [12]: antiproliferative effect
lipid peroxidation (A549 cells [13]): induced; also recorded: induces an increase
basal oxygen consumption (A549 cells [14]): strongly impaired
maximal oxygen consumption (A549 cells [14]; after oligomycin and FCCP): strongly impaired
mitochondrial ROS production (A549 cells [15]): induced ROS production; also recorded: induces an increase
cell death after first passage of cells (p1) (A549 cells [16]; A549, 500 μM D-cysteine, after 72 hours, following first passage): extensive cell death
concentration sufficient to induce A549 cell death (A549 cells [16]; A549 cells stably expressing Cas9, culture 2-3 weeks): 0.5 mM
caspase 3 by Western blotting (A549 cells [16]; D-cysteine-exposed cells, data not shown): No increase in caspase 3
cellular iron (ICP-MS) (A549 cells [17]): decrease in cellular iron
sensitivity of osteosarcoma cell line 143B [18]: insensitive

N[C@H](CSSC[C@@H](N)C(=O)O)C(=O)O [D-cystine]
proliferation of A549 cells (A549 cells [2]): inhibited the proliferation

Cc1cc(=O)[nH]c(SCC(=O)c2cccc3ccccc23)n1 [HMPSNE]
cell proliferation (cell numbers after 72 hours), A549 (A549 lung cancer cells): significant impact; also recorded: potentiates the anti-proliferative effect of D-cysteine
cell proliferation (cell numbers after 72 hours), MDA-MB-231 [11]: significant impact; also recorded: potentiates the anti-proliferative effect of D-cysteine

N[C@@H](CS)C(=O)O [L-cysteine, reference compound]
proliferation of A549 cells (A549 cells [2]): had no effect
proliferation of A549 cells (A549 cells [2]; listed as L form of cysteine): no adverse effect
inhibitory effect on oxygen consumption rate (OCR) [19]: responsible for the observed effect

COC(=O)C[C@H](NC(=O)[C@H](C)NC(=O)[C@@H](NC(=O)OCc1ccccc1)C(C)C)C(=O)CF [zVAD-fmk, reference compound] (Cbz-Val-Ala-Asp(OMe)-CH2F)
protection from D-cysteine-induced cell death by added pan-caspase inhibitor (A549 cells [16]; added to D-cysteine-exposed cells, data not shown): did not protect the cells
